# Data published in PubChem BioAssay (NCI).
#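 At the GI50, growth is halved. Definition used: TGI = concentration required for complete inhibition of growth.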
# Legend:
# Experiment in all cases: growth of human tumour cells (NCI), 384-well format
# NCI-H522 lung = system: NCI-H522 lung
# BT-549 breast = system: BT-549 breast
# COLO 205 colon = system: COLO 205 colon
# T-47D breast = system: T-47D breast
# SF-539 CNS = system: SF-539 CNS
# HCT-15 colon = system: HCT-15 colon
# MDA-MB-231 breast = system: MDA-MB-231 breast
# HOP-62 NSCLC = system: HOP-62 NSCLC
# UO-31 renal = system: UO-31 renal
# PC-3 prostate = system: PC-3 prostate
# NCI-H226 lung = system: NCI-H226 lung
# SF-268 CNS = system: SF-268 CNS
# OVCAR-3 ovarian = system: OVCAR-3 ovarian
# SNB-19 CNS = system: SNB-19 CNS
# U251 glioblastoma = system: U251 glioblastoma
# OVCAR-5 ovarian = system: OVCAR-5 ovarian
# SF-295 CNS = system: SF-295 CNS
# A549 NSCLC = system: A549 NSCLC
# NCI/ADR-RES ovarian = system: NCI/ADR-RES ovarian
# A498 renal = system: A498 renal
# SK-OV-3 ovarian = system: SK-OV-3 ovarian
# NCI-H23 lung = system: NCI-H23 lung
# HT29 colon = system: HT29 colon
# NCI-H460 NSCLC = system: NCI-H460 NSCLC
# MCF7 breast = system: MCF7 breast
# MALME-3M melanoma = system: MALME-3M melanoma
# HOP-92 NSCLC = system: HOP-92 NSCLC
# TK-10 renal = system: TK-10 renal
# RXF 393 renal = system: RXF 393 renal
# SW-620 colon = system: SW-620 colon
# DU-145 prostate = system: DU-145 prostate
# 786-0 renal = system: 786-0 renal
# K-562 leukemia = system: K-562 leukemia
# HCT-116 colon = system: HCT-116 colon
# MDA-MB-468 breast = system: MDA-MB-468 breast
# SR leukemia = system: SR leukemia
# SK-MEL-2 melanoma = system: SK-MEL-2 melanoma
# SNB-75 CNS = system: SNB-75 CNS
# UACC-257 melanoma = system: UACC-257 melanoma
# SK-MEL-28 melanoma = system: SK-MEL-28 melanoma
# HL-60(TB) leukemia = system: HL-60(TB) leukemia
# IGROV1 ovarian = system: IGROV1 ovarian
# OVCAR-4 ovarian = system: OVCAR-4 ovarian
# UACC-62 melanoma = system: UACC-62 melanoma
# M14 melanoma = system: M14 melanoma
# SN12C renal = system: SN12C renal
# EKVX NSCLC = system: EKVX NSCLC
# SK-MEL-5 melanoma = system: SK-MEL-5 melanoma
# MOLT-4 leukemia = system: MOLT-4 leukemia
# NCI-H322M lung = system: NCI-H322M lung
# OVCAR-8 ovarian = system: OVCAR-8 ovarian
# CCRF-CEM leukemia = system: CCRF-CEM leukemia
# LOX IMVI melanoma = system: LOX IMVI melanoma
# KM12 colon = system: KM12 colon
# RPMI-8226 leukemia = system: RPMI-8226 leukemia
# ACHN renal = system: ACHN renal
# MDA-MB-435 melanoma = system: MDA-MB-435 melanoma
# CAKI-1 renal = system: CAKI-1 renal
# HCC-2998 colon = system: HCC-2998 colon
structure (smiles),measurement,setting,value
O=C1Cc2cc(C(=O)NC3C[C@H]4CC[C@@H](C3)N4S(=O)(=O)CC3CCN(CCCC(F)(F)F)CC3)c(Cl)cc2N1 (stereo partly drawn),GI50,NCI-H522 lung,> 44.7 µM
same,TGI,NCI-H522 lung,> 58.9 µM
same,GI50,BT-549 breast,> 49.1 µM
same,TGI,BT-549 breast,> 73.8 µM
same,GI50,COLO 205 colon,> 78 µM
same,TGI,COLO 205 colon,> 100 µM
same,GI50,T-47D breast,60.3 µM
same,TGI,T-47D breast,> 100 µM
same,GI50,SF-539 CNS,> 100 µM
same,TGI,SF-539 CNS,> 100 µM
same,GI50,HCT-15 colon,> 46.3 µM
same,TGI,HCT-15 colon,> 64.5 µM
same,GI50,MDA-MB-231 breast,> 100 µM
same,TGI,MDA-MB-231 breast,> 100 µM
same,GI50,HOP-62 NSCLC,> 49.6 µM
same,TGI,HOP-62 NSCLC,> 73.6 µM
same,GI50,UO-31 renal,23.2 µM
same,TGI,UO-31 renal,47.5 µM
same,GI50,PC-3 prostate,> 52.1 µM
same,TGI,PC-3 prostate,> 74.7 µM
same,GI50,NCI-H226 lung,> 100 µM
same,TGI,NCI-H226 lung,> 100 µM
same,GI50,SF-268 CNS,> 100 µM
same,TGI,SF-268 CNS,> 100 µM
same,GI50,OVCAR-3 ovarian,> 45 µM
same,TGI,OVCAR-3 ovarian,> 63.5 µM
same,GI50,SNB-19 CNS,> 49.8 µM
same,TGI,SNB-19 CNS,> 74.9 µM
same,GI50,U251 glioblastoma,> 100 µM
same,TGI,U251 glioblastoma,> 100 µM
same,GI50,OVCAR-5 ovarian,> 49.9 µM
same,TGI,OVCAR-5 ovarian,> 73.1 µM
same,GI50,SF-295 CNS,> 100 µM
same,TGI,SF-295 CNS,> 100 µM
same,GI50,A549 NSCLC,> 51 µM
same,TGI,A549 NSCLC,> 81 µM
same,GI50,NCI/ADR-RES ovarian,> 100 µM
same,TGI,NCI/ADR-RES ovarian,> 100 µM
same,GI50,A498 renal,> 100 µM
same,TGI,A498 renal,> 100 µM
same,GI50,SK-OV-3 ovarian,> 47.3 µM
same,TGI,SK-OV-3 ovarian,> 72.8 µM
same,GI50,NCI-H23 lung,> 52.9 µM
same,TGI,NCI-H23 lung,> 71.2 µM
same,GI50,HT29 colon,> 100 µM
same,TGI,HT29 colon,> 100 µM
same,GI50,NCI-H460 NSCLC,> 100 µM
same,TGI,NCI-H460 NSCLC,> 100 µM
same,GI50,MCF7 breast,> 100 µM
same,TGI,MCF7 breast,> 100 µM
same,GI50,MALME-3M melanoma,> 100 µM
same,TGI,MALME-3M melanoma,> 100 µM
same,GI50,HOP-92 NSCLC,> 100 µM
same,TGI,HOP-92 NSCLC,> 100 µM
same,GI50,TK-10 renal,> 46.4 µM
same,TGI,TK-10 renal,> 65.3 µM
same,GI50,RXF 393 renal,> 78.5 µM
same,TGI,RXF 393 renal,> 100 µM
same,GI50,SW-620 colon,> 58.1 µM
same,TGI,SW-620 colon,> 100 µM
same,GI50,DU-145 prostate,> 51.2 µM
same,TGI,DU-145 prostate,> 80 µM
same,GI50,786-0 renal,> 100 µM
same,TGI,786-0 renal,> 100 µM
same,GI50,K-562 leukemia,> 42.3 µM
same,TGI,K-562 leukemia,> 56.5 µM
same,GI50,HCT-116 colon,> 42 µM
same,TGI,HCT-116 colon,> 56.5 µM
same,GI50,MDA-MB-468 breast,25.5 µM
same,TGI,MDA-MB-468 breast,57.7 µM
same,GI50,SR leukemia,38.7 µM
same,TGI,SR leukemia,99.3 µM
same,GI50,SK-MEL-2 melanoma,> 87 µM
same,TGI,SK-MEL-2 melanoma,> 100 µM
same,GI50,SNB-75 CNS,> 100 µM
same,TGI,SNB-75 CNS,> 100 µM
same,GI50,UACC-257 melanoma,> 100 µM
same,TGI,UACC-257 melanoma,> 100 µM
same,GI50,SK-MEL-28 melanoma,> 100 µM
same,TGI,SK-MEL-28 melanoma,> 100 µM
same,GI50,HL-60(TB) leukemia,> 46.1 µM
same,TGI,HL-60(TB) leukemia,> 60.4 µM
same,GI50,IGROV1 ovarian,> 57.9 µM
same,TGI,IGROV1 ovarian,> 100 µM
same,GI50,OVCAR-4 ovarian,> 100 µM
same,TGI,OVCAR-4 ovarian,> 100 µM
same,GI50,UACC-62 melanoma,> 100 µM
same,TGI,UACC-62 melanoma,> 100 µM
same,GI50,M14 melanoma,> 100 µM
same,TGI,M14 melanoma,> 100 µM
same,GI50,SN12C renal,> 62.4 µM
same,TGI,SN12C renal,> 100 µM
same,GI50,EKVX NSCLC,> 100 µM
same,TGI,EKVX NSCLC,> 100 µM
same,GI50,SK-MEL-5 melanoma,> 43.5 µM
same,TGI,SK-MEL-5 melanoma,> 57.5 µM
same,GI50,MOLT-4 leukemia,> 67 µM
same,TGI,MOLT-4 leukemia,> 100 µM
same,GI50,NCI-H322M lung,> 100 µM
same,TGI,NCI-H322M lung,> 100 µM
same,GI50,OVCAR-8 ovarian,> 44.1 µM
same,TGI,OVCAR-8 ovarian,> 61.9 µM
same,GI50,CCRF-CEM leukemia,> 43.8 µM
same,TGI,CCRF-CEM leukemia,> 57.7 µM
same,GI50,LOX IMVI melanoma,19.2 µM
same,TGI,LOX IMVI melanoma,33.8 µM
same,GI50,KM12 colon,> 100 µM
same,TGI,KM12 colon,> 100 µM
same,GI50,RPMI-8226 leukemia,> 45.6 µM
same,TGI,RPMI-8226 leukemia,> 59.3 µM
same,GI50,ACHN renal,> 50.1 µM
same,TGI,ACHN renal,> 77.9 µM
same,GI50,MDA-MB-435 melanoma,> 100 µM
same,TGI,MDA-MB-435 melanoma,> 100 µM
same,GI50,CAKI-1 renal,> 46.2 µM
same,TGI,CAKI-1 renal,> 65.5 µM
same,GI50,HCC-2998 colon,> 100 µM
same,TGI,HCC-2998 colon,> 100 µM
